This note sets out measurements from US8415359B2, “Phenylpyrrole derivative” (Daiichi Sankyo Company, Limited, priority 2008, dated 2013).

The target in this experiment is T1, human pancreatic GK (human glucokinase variant 1, GST-fused protein) (Homo sapiens, UniProt P35557).
T1 construct: made in house; host or cells: Escherichia coli (such as BL21 or JM109)
T1 sequence (P35557 1-465): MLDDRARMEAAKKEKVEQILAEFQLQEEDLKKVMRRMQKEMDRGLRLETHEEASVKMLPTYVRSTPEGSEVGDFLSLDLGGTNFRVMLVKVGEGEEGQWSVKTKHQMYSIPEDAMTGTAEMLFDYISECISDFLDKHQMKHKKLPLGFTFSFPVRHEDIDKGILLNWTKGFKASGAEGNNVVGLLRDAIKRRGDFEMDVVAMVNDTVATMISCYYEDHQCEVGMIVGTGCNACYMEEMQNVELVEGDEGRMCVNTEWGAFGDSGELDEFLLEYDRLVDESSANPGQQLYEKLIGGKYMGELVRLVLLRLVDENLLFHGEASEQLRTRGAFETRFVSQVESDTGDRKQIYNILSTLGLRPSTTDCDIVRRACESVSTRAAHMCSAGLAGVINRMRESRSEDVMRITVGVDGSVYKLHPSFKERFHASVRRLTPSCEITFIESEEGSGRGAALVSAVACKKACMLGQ
Nature of the experiment: GK activity test (GK activation rate). It is filed as biochemical. Particulars: test compound 1 μM; glucose 5 mM; 30 min at room temperature; absorbance at 340 nm with test compound / without test compound. The method, then: cDNA encoding human pancreatic GK polypeptide (GenBank Accession No. NM_000162, human glucokinase variant 1) was cloned from a human cDNA library by polymerase chain reaction (PCR), and introduced into a glutathione S-transferase (GST)-fused protein expression vector (GEX4T, GE Healthcare Bioscience). The vector was introduced into Escherichia coli (such as BL21 or JM109, Invitrogen), and the transformed E. coli was cultured overnight at 37° C. followed by recovery of the cells. After freezing and thawing the recovered cells, the cells were suspended in phosphate buffer containing Triton-X at a final concentration of 1% followed by disrupting the cells with an ultrasonic homogenizer. The supernatant obtained by low-speed centrifugation treatment of the homogenate (10,000×g, 30 minutes) was further subjected to high-speed centrifugation (100,000×g, 10 minutes) followed by recovering the supernatant and purifying the fused protein using a GST fused protein purification system (Bulk GST Purification Module, GE Healthcare Bioscience). The GK fused protein was divided into smaller aliquots and stored at −80° C.
GK activity was measured using the GK purified in (1) above. More specifically, an enzyme solution was prepared by adding the purified GK of (1) above and glucose-6-phosphate dehydrogenase (Sigma) to solution 1 of a glucose assay kit (D-Glucose UV Method, Roche Diagnostics). The enzyme solution, a test compound diluent and glucose (final concentration: 5 mM) were mixed in a 96-well ELISA plate, and allowed to react for 30 minutes at room temperature. Following completion of the reaction, absorbance at a wavelength of 340 nm was measured using SpectraMax Plus (Molecular Probe). Furthermore, unreacted (when glucose was not added) absorbance was used for the background.
GK activation rates were indicated with values represented by the following numerical formula: (absorbance after reacting for 30 minutes when test compound added)/(absorbance after reacting for 30 minutes when test compound not added).

For the compound `COC[C@H](C)Oc1cc(Oc2cnc(S(C)(=O)=O)cn2)cc(-c2ccc(C3=NC(O)[C@H](C)O3)[nH]2)c1` (stereo partly drawn) [Example 103, (5S)-2-[5-(3-[(1S)-2-Methoxy-1-methylethoxy]-5-{[5-(methylsulfonyl)pyrazin-2-yl]oxy}phenyl)-1H-pyrrol-2-yl]-5-methyl-4,5-dihydro-1,3-oxazol-4-ol], the “GK Activation Rate” value was 2.1. For `COC[C@H](C)Oc1cc(Oc2cnc(S(C)(=O)=O)cn2)cc(-c2ccc(C3=NC[C@H](CO)O3)[nH]2)c1` [Example 101, {(5R)-2-[5-(3-[(1S)-2-Methoxy-1-methylethoxy]-5-{[5-(methylsulfonyl)pyrazin-2-yl]oxy}phenyl)-1H-pyrrol-2-yl]-4,5-dihydro-1,3-oxazol-5-yl}methanol] the value was 1.9. For `COC[C@H](C)Oc1cc(Oc2ccc(S(C)(=O)=O)nc2)cc(-c2ccc(C3=N[C@H]([C@@H](C)O)CO3)[nH]2)c1` [Example 95, (1R)-1-{(4S)-2-[5-(3-[(1S)-2-Methoxy-1-methylethoxy]-5-{[6-(methylsulfonyl)pyridin-3-yl]oxy}phenyl)-1H-pyrrol-2-yl]-4,5-dihydro-1,3-oxazol-4-yl}ethanol] the value was 2.5; for `COC[C@H](C)Oc1cc(Oc2ccc(S(C)(=O)=O)nc2)cc(-c2ccc(C3=N[C@H](CO)CO3)[nH]2)c1` [Example 86, {(4R)-2-[5-(3-[(1S)-2-Methoxy-1-methylethoxy]-5-{[6-(methylsulfonyl)pyridin-3-yl]oxy}phenyl)-1H-pyrrol-2-yl]-4,5-dihydro-1,3-oxazol-4-yl}methanol], 2.5.

For `COC[C@H](C)Oc1cc(Oc2ccc(S(C)(=O)=O)nc2)cc(-c2ccc(C3=N[C@H](C)[C@H](CO)O3)[nH]2)c1` [Example 89, {(4R,5R)-2-[5-(3-[(1S)-2-Methoxy-1-methylethoxy]-5-{[6-(methylsulfonyl)pyridin-3-yl]oxy}phenyl)-1H-pyrrol-2-yl]-4-methyl-4,5-dihydro-1,3-oxazol-5-yl}methanol], the “GK Activation Rate” value came out at 2.3. For `COC[C@H](C)Oc1cc(Oc2ccc(C(=O)N3CCC3)cc2F)cc(-c2ccc(-c3nccs3)[nH]2)c1` [Example 41, 2-(5-{3-[4-(Azetidin-1-ylcarbonyl)-2-fluorophenoxy]-5-[(1S)-2-methoxy-1-methylethoxy]phenyl}-1H-pyrrol-2-yl)-1,3-thiazole] the value was 2.1; for `C[C@H]1CN=C(c2ccc(-c3cc(Oc4ccc(S(C)(=O)=O)cc4)cc(O[C@@H](C)CO)c3)[nH]2)O1` [Example 32, (2S)-2-(3-{5-[(5S)-5-Methyl-4,5-dihydro-1,3-oxazol-2-yl]-1H-pyrrol-2-yl}-5-[4-(methylsulfonyl)phenoxy]phenoxy)propan-1-ol], 2.0; for `CC[C@@H]1COC(c2ccc(-c3cc(Oc4ccc(S(C)(=O)=O)nc4)cc(O[C@@H](C)CO)c3)[nH]2)=N1` [Example 85, (2S)-2-(3-{5-[(4R)-4-Ethyl-4,5-dihydro-1,3-oxazol-2-yl]-1H-pyrrol-2-yl}-5-{[6-(methylsulfonyl)pyridin-3-yl]oxy}phenoxy)propan-1-ol], 2.9. In the case of `C[C@@H]1OC(c2ccc(-c3cc(Oc4ccc(S(C)(=O)=O)nc4)cc(O[C@@H](C)CO)c3)[nH]2)=N[C@@H]1C` [Example 88, (2S)-2-(3-{5-[(4R,5S)-4,5-Dimethyl-4,5-dihydro-1,3-oxazol-2-yl]-1H-pyrrol-2-yl}-5-{[6-(methylsulfonyl)pyridin-3-yl]oxy}phenoxy)propan-1-ol] it was 2.4; in that of `COC[C@H](C)Oc1cc(Oc2ccc(S(C)(=O)=O)nc2)cc(-c2ccc(-c3nccs3)[nH]2)c1` [Example 65, 5-{3-[(1S)-2-Methoxy-1-methylethoxy]-5-[5-(1,3-thiazol-2-yl)-1H-pyrrol-2-yl]phenoxy}-2-(methylsulfonyl)pyridine], 2.4. For `COC[C@H](C)Oc1cc(Oc2ccc(S(C)(=O)=O)cc2)cc(-c2ccc(C3=NCCS3)[nH]2)c1` [Example 25, 2-(5-{3-[(1S)-2-Methoxy-1-methylethoxy]-5-[4-(methylsulfonyl)phenoxy]phenyl}-1H-pyrrol-2-yl)-4,5-dihydro-1,3-thiazole] the value was 2.0. Take `COC[C@H](C)Oc1cc(Oc2cnc(S(C)(=O)=O)cn2)cc(-c2ccc(C3=N[C@H]([C@@H](C)O)CO3)[nH]2)c1` [Example 114, (1R)-1-{(4S)-2-{[5-(3-[(2S)-1-Methoxypropan-2-yl]oxy}-5-{[5-(methylsulfonyl)pyrazin-2-yl]oxy}phenyl)-1H-pyrrol-2-yl]-4,5-dihydro-1,3-oxazol-4-yl}ethanol]: the “GK Activation Rate” value is recorded as 2.2. For `C[C@@H]1COC(c2ccc(-c3cc(Oc4cnc(S(C)(=O)=O)cn4)cc(O[C@@H](C)CO)c3)[nH]2)=N1` [Example 107, (2S)-2-(3-{5-[(4R)-4-Methyl-4,5-dihydro-1,3-oxazol-2-yl]-1H-pyrrol-2-yl}-5-{[5-(methylsulfonyl)pyrazin-2-yl]oxy}phenoxy)propan-1-ol] the value was 2.0. In the case of `C[C@H]1CN=C(c2ccc(-c3cc(Oc4cnc(S(C)(=O)=O)cn4)cc(O[C@@H](C)CO)c3)[nH]2)O1` [Example 100, (2S)-2-(3-{5-[(5S)-5-Methyl-4,5-dihydro-1,3-oxazol-2-yl]-1H-pyrrol-2-yl}-5-{[5-(methylsulfonyl)pyrazin-2-yl]oxy}phenoxy)propan-1-ol] it was 1.9. For `Cc1nnc(-c2ccc(-c3cc(Oc4cnc(S(C)(=O)=O)cn4)cc(O[C@@H](C)CO)c3)[nH]2)o1` [Example 98, (2S)-2-(3-[5-(5-Methyl-1,3,4-oxadiazol-2-yl)-1H-pyrrol-2-yl]-5-{[5-(methylsulfonyl)pyrazin-2-yl]oxy}phenoxy)propan-1-ol] the value was 1.9; for `COC[C@H](C)Oc1cc(Oc2ccc(S(C)(=O)=O)cc2)cc(-c2ccc(C3=NC[C@@H](C)O3)[nH]2)c1` [Example 33, (5R)-2-(5-{3-[(1S)-2-Methoxy-1-methylethoxy]-5-[4-(methylsulfonyl)phenoxy]phenyl}-1H-pyrrol-2-yl)-5-methyl-4,5-dihydro-1,3-oxazole], 1.7. As to `COC[C@H](C)Oc1cc(Oc2ccc(S(C)(=O)=O)nc2)cc(-c2ccc(C3=N[C@H](CO)[C@H](C)O3)[nH]2)c1` [Example 91, {(4R,5S)-2-[5-(3-[(1S)-2-Methoxy-1-methylethoxy]-5-{[6-(methylsulfonyl)pyridin-3-yl]oxy}phenyl)-1H-pyrrol-2-yl]-5-methyl-4,5-dihydro-1,3-oxazol-4-yl}methanol], the “GK Activation Rate” value came out at 2.6. For `C[C@H]1CN=C(c2ccc(-c3cc(Oc4ccc(S(C)(=O)=O)nc4)cc(O[C@@H](C)CO)c3)[nH]2)O1` [Example 77, (2S)-2-(3-{5-[(5S)-5-Methyl-4,5-dihydro-1,3-oxazol-2-yl]-1H-pyrrol-2-yl}-5-{[6-(methylsulfonyl)pyridin-3-yl]oxy}phenoxy)propan-1-ol] the value was 2.6. Turning to `COC[C@H](C)Oc1cc(Oc2ccc(S(C)(=O)=O)nc2)cc(-c2ccc(C3=NC[C@H](CO)O3)[nH]2)c1` [Example 82, {(5R)-2-[5-(3-[(1S)-2-Methoxy-1-methylethoxy]-5-{[6-(methylsulfonyl)pyridin-3-yl]oxy}phenyl)-1H-pyrrol-2-yl]-4,5-dihydro-1,3-oxazol-5-yl}methanol], the “GK Activation Rate” value came to 2.7. For `C[C@@H](CO)Oc1cc(Oc2ccc(S(C)(=O)=O)cc2)cc(-c2ccc(C3=NCCS3)[nH]2)c1` [Example 26, (2S)-2-{3-[5-(4,5-Dihydro-1,3-thiazol-2-yl)-1H-pyrrol-2-yl]-5-[4-(methylsulfonyl)phenoxy]phenoxy}propan-1-ol] the value was 2.3; for `CNS(=O)(=O)c1ccc(Oc2cc(O[C@@H](C)COC)cc(-c3ccc(C4=NC[C@H](CO)O4)[nH]3)c2)cn1` [Example 127, 5-(3-{5-[(5R)-5-(Hydroxymethyl)-4,5-dihydro-1,3-oxazol-2-yl]-1H-pyrrol-2-yl}-5-[(1S)-2-methoxy-1-methylethoxy]phenoxy)-N-methylpyridine-2-sulfonamide], 2.4.
